Test results from ChEMBL document CHEMBL1151717, “In vivo active aldosterone synthase inhibitors with improved selectivity: lead optimization providing a series of pyridine substituted 3,4-dihydro-1H-quinolin-2-one derivatives” (J Med Chem, 2008).

Legend:
CYP19 (aromatase) = biological target: T1, CYP19 (aromatase) (Homo sapiens, UniProt P11511); assay: Inhibition of human placental CYP19 at 500 nM; format: functional
T1 sequence (P11511 whole entry): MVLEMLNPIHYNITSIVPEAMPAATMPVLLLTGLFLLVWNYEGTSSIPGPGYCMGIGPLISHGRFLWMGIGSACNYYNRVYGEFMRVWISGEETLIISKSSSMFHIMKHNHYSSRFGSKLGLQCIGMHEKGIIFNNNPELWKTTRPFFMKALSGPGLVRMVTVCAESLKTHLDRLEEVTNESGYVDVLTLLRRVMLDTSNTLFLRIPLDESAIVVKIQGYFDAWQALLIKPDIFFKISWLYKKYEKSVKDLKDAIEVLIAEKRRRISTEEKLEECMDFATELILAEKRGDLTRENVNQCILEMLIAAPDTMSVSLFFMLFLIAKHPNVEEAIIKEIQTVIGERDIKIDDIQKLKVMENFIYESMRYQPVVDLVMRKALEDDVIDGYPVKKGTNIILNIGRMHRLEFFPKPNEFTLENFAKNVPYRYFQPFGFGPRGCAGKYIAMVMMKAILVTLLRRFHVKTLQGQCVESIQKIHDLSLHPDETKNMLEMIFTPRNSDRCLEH

CYP1A2 = biological target: T2, CYP1A2 (Homo sapiens, UniProt P05177); assay: Inhibition of human recombinant CYP1A2 expressed in baculovirus-infected insect microsomes at 2 uM; format: ADME, Microsome
T2 sequence (P05177 whole entry): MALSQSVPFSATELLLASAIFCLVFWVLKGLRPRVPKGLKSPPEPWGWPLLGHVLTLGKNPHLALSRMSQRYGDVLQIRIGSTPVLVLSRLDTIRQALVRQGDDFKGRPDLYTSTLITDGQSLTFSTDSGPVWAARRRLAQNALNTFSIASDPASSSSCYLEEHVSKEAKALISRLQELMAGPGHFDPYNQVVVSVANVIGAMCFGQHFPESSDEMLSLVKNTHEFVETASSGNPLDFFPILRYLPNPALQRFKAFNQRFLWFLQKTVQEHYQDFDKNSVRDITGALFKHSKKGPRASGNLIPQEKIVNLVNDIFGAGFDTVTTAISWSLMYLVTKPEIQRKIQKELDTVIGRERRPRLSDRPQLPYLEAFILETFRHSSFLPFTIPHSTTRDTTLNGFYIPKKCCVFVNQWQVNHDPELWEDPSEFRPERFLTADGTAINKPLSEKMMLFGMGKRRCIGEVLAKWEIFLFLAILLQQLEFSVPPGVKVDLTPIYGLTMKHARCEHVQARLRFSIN

Cytochrome P450 2C9 = Cytochrome P450 2C9 (Homo sapiens, UniProt P11712); assay: Inhibition of human recombinant CYP2C9 expressed in baculovirus-infected insect microsomes; format: ADME, Microsome
[1] = Terminal half life in Wistar rat at 25 mg/kg, po; format: ADME, organism-based; design: dose 25 mg/kg, route oral; details: in vivo, read-out: beta t1/2 (converted)
[2] = Tmax in Wistar rat at 25 mg/kg, po; format: ADME, organism-based; design: dose 25 mg/kg, route oral; details: in vivo
[3] = Cmax in Wistar rat at 25 mg/kg, po; format: ADME, organism-based; design: dose 25 mg/kg, route oral; details: in vivo
[4] = AUC (0 to infinity) in Wistar rat at 25 mg/kg, po; format: ADME, organism-based; design: time infinity, dose 25 mg/kg, route oral; details: plasma
Rattus norvegicus [5] = assay: Plasma concentration in Wistar rat at 25 mg/kg, po after 0.5 to 8 hrs; format: ADME, organism-based; design: dose 25 mg/kg, route oral; details: in vivo
Rattus norvegicus [6] = assay: Reduction of ACTH-induced aldosterone level in Wistar rat plasma at 20 mg/kg, iv administered 16 hrs after ACTH challenge after 0.5 to 3 hrs; design: scale not given: the % may be the effect or the level left
[7] = Protein binding in rat plasma at 3 uM after 1 hr; format: ADME, cell-free; details: read-out: PPB (converted)
[8] = Protein binding in human plasma at 3 uM after 1 hr; format: ADME, cell-free; details: read-out: PPB (converted)
[9] = Terminal half life in Wistar rat at 5 mg/kg, po by cassette dosing; format: ADME, organism-based; design: dose 5 mg/kg, route oral; details: in vivo, read-out: beta t1/2 (converted)
[10] = Tmax in Wistar rat at 5 mg/kg, po by cassette dosing; format: ADME, organism-based; design: dose 5 mg/kg, route oral; details: in vivo
[11] = Cmax in Wistar rat at 5 mg/kg, po by cassette dosing; format: ADME, organism-based; design: dose 5 mg/kg, route oral; details: in vivo
[12] = AUC (0 to infinity) in Wistar rat at 5 mg/kg, po by cassette dosing; format: ADME, organism-based; design: time infinity, dose 5 mg/kg, route oral; details: plasma
U-937 = assay: Cytotoxicity against human U937 cells assessed as reduction of survival fraction at >100 uM by fluorimetric alamar blue assay; format: cell-based

Sequence of Cytochrome P450 2C9 (P11712 whole entry): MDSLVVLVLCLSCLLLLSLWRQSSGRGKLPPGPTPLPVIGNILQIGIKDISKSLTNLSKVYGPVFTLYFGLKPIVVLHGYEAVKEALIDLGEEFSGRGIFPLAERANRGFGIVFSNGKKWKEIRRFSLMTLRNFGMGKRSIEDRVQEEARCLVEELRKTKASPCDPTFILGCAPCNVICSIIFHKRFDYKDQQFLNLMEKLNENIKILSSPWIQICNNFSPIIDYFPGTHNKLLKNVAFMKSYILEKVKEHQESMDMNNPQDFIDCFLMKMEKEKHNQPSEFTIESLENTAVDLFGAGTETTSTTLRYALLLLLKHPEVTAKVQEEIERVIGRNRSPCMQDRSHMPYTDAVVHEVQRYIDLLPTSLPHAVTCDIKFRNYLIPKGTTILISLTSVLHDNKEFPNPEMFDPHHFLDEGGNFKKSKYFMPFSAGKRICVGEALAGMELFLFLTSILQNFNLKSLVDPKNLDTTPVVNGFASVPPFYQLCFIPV

inhibition at 0.5 µM (CYP19 (aromatase)) | inhibition at 2 µM (CYP1A2) | IC50 (Cytochrome P450 2C9) | half-life [1] | Tmax [2] | Cmax [3] | AUC(0-inf) [4] | Cp (Rattus norvegicus [5]) | fraction unbound at 1 h, 3 µM [7] | fraction unbound at 1 h, 3 µM [8] | half-life [9] | Tmax [10] | Cmax [11] | AUC(0-inf) [12] | Compound | Activity (Rattus norvegicus [6]) | Activity (U-937)
< 5% | < 5% | 2.9 µM | 2.9 h | 2 h | 134 ng/mL | 1660 ng·h/mL | 90 ng/mL | – | – | – | – | – | – | O=C1CCc2cc(-c3cncc4ccccc34)ccc2N1 | 36% | –
31% | 60% | 28.3 µM | – | – | – | – | – | 0.75 | 0.76 | 3.5 h | 4 h | 104 ng/mL | 727 ng·h/mL | O=C1CCc2cc(-c3cccnc3)ccc2C1 | – | Toxic
58% | 57% | 12.9 µM | – | – | – | – | – | – | – | 3.9 h | 4 h | 35 ng/mL | 212 ng·h/mL | COc1cncc(-c2ccc3c(c2)CCC(=O)C3)c1 | – | –
